The source made the active and inactive calls. The rule behind the calls is not given here.
Assays:
Carbonic anhydrase 1 [1] = target: T1, Carbonic anhydrase 1 (Homo sapiens, UniProt P00915); experiment: Competitive inhibition of human erythrocytes CA1 using 4-nitrophenylacetate as substrate by Lineweaver-Burk plot analysis
Target sequence in this assay (P00915 2-261 limits assumed): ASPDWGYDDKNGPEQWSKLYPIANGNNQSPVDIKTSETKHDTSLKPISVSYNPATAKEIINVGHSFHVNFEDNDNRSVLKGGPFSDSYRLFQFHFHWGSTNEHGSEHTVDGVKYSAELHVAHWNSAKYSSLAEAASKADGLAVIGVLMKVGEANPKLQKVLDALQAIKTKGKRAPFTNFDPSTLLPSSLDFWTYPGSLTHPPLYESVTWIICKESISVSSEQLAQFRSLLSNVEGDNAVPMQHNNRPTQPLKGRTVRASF

Carbonic anhydrase 1 [2] = target: T1, Carbonic anhydrase 1; experiment: Inhibition of human erythrocytes CA1 using 4-nitrophenylacetate as substrate by esterase assay
Target sequence in this assay (P00915 whole entry): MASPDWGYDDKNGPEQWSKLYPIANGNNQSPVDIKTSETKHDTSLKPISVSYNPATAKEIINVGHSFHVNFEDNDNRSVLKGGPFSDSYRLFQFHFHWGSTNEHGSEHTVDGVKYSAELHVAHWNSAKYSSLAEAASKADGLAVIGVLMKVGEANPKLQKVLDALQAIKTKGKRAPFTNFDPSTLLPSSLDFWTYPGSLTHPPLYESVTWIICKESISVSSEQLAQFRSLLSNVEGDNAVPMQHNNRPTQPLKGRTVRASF

Carbonic anhydrase 2 = Carbonic anhydrase 2 (Homo sapiens, UniProt P00918); experiment: Inhibition of human erythrocytes CA2 using 4-nitrophenylacetate as substrate by esterase assay

SMILES | inhibition mode (Carbonic anhydrase 1 [1]) | Ki (Carbonic anhydrase 1 [2]) [µM] | Ki (Carbonic anhydrase 2; read-out: Ki) [µM] | inhibition (Carbonic anhydrase 1 [1]) | Ki (Carbonic anhydrase 2)
CC(=O)n1cc(Br)c(=O)[nH]c1=O | Active | 464 | 778 | – | –
Oc1ccccc1O | – | – | – | Active | –
Oc1ccccc1 | – | – | – | Active | –
Cc1cc(O)nc(O)n1 | – | 57.8 | – | Active | Not Active
Cn1ccc(=O)n(C)c1=O | Active | 316 | 166 | – | –
CS(=O)(=O)n1cc(Br)c(=O)[nH]c1=O | Active | 428 | 645 | – | –
O=c1[nH]cc(CO)c(=O)[nH]1 | – | 49.5 | – | – | Not Active
Cc1ccc(S(=O)(=O)n2cc(Br)c(=O)[nH]c2=O)cc1 | Active | 10.8 | 28.9 | – | –
Oc1cccc(O)c1 | Active | – | – | – | –

— ChEMBL document CHEMBL3600346, “Synthesis and carbonic anhydrase inhibitory properties of novel uracil derivatives” (Bioorg Med Chem Lett, 2015)
